Measurements taken from patent US7300932B2, “Pyrrolo[1,2-b]pyridazine derivatives” (Japan Tobacco Inc., priority 2003, dated 2007).

What follows are compounds tested against T1, human DGAT1 (Homo sapiens, UniProt O75907) (assay: DGAT Scintillation Proximity Assay (SPA) with membranes of insect cells expressing human flagtag DGAT1). Details: DGAT inhibition.
T1 construct: made in house; host or cells: insect cells (e.g., sf9, sf21, or High Five), Bac-to-Bac baculovirus; total cell membranes
T1 sequence (O75907 1-488): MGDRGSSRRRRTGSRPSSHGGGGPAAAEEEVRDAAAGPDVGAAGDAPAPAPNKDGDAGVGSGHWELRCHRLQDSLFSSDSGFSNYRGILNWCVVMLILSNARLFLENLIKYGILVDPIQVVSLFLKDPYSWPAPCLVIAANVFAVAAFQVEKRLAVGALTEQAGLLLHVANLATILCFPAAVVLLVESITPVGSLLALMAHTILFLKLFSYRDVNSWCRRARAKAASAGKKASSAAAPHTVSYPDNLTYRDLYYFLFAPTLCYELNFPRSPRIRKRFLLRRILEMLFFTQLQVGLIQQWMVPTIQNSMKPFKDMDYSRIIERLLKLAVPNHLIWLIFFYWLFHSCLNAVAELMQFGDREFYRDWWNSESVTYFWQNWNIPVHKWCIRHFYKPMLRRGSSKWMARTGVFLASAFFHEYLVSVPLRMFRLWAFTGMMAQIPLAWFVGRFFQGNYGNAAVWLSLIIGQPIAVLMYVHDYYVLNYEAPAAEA
Type: biochemical
Description: In such an assay human DGAT1 is cloned from a human liver cDNA library. PCR is used to add a restriction site and flag epitope at the most 5′ end and a restriction site at the 3′ end of the sequence. Thereafter, human flagtag (FT) DGAT1 baculovirus may be generated using a Bac-to-Bac Baculovirus Expression System® (Invitrogen). Insect cells (e.g., sf9, sf21, or High Five) are infected for 24 to 72 h and collected by centrifugation. Cell pellets are resuspended in homogenization buffer and lysed using a homogenization device, such as a Microfluidizer. Total cell membranes are collected by ultracentrifugation at 45,000 rpm for 1 h.
A small aliquot (0.2 μg/well) of membrane is incubated with 10 μM compound or mercuric chloride (as positive control for inhibition) in the presence of enzyme substrate, dioleoyl glycerol (200 μM) in 384 well plates, final volume 50 μL per well. […] The reaction is stopped by adding Wheat Germ Agglutinin (WGA) SPA beads (0.2 mg) in mercuric chloride. Cell membranes are allowed to couple to the beads overnight. The signal can be measured using, for example, a Chemiluminescence Image Plate Reader (CLIPR) or TopCount device.

IC50 [nM] | Compound
< 500 | CCCc1c(C(=O)OCC)c(C(=O)OCC)c2c(C3CCCCC3)cc(N3CCOCC3)nn12 [Example 90, 4-Cyclohexyl-2-morpholin-4-yl-7-propyl-pyrrolo[1,2-b]pyridazine-5,6-dicarboxylic acid diethyl ester]
> 500 | CCOC(=O)c1c(C(=O)OCC)c2c(-c3ccccc3)cc(N3CCOCC3)nn2c1C [Example 24, 7-Methyl-2-morpholin-4-yl-4-phenyl-pyrrolo[1,2-b]pyridazine-5,6-dicarboxylic acid diethyl ester]
> 500 | CCCc1c(-c2ncc(-c3ccccc3)o2)c(C(=O)OCC)c2c(-c3ccccc3)cc(N3CCOCC3)nn12 [Example 80, 2-Morpholin-4-yl-4-phenyl-6-(5-phenyl-oxazol-2-yl)-7-propyl-pyrrolo[1,2-b]pyridazine-5-carboxylic acid ethyl ester]
< 500 | CCCc1c(C(=O)OCC)c(C(=O)OCC)c2c(-c3ccccc3)cc(N3CCCC3)nn12 [Example 96, 4-Phenyl-7-propyl-2-pyrrolidin-1-yl-pyrrolo[1,2-b]pyridazine-5,6-dicarboxylic acid diethyl ester]
> 500 | CCOC(=O)c1c(C(=O)OCC)c2c(-c3ccccc3)cc(N3CCOCC3)nn2c1C1CC1 [Example 8, 7-Cyclopropyl-2-morpholin-4-yl-4-phenyl-pyrrolo[1,2-b]pyridazine-5,6-dicarboxylic acid diethyl ester]
> 500 | CCCc1c(C(=O)OCC)c(C(=O)OCC)c2c(-c3ccccc3)cc(N3CCC3)nn12 [Example 95, 2-Azetidin-1-yl-4-phenyl-7-propyl-pyrrolo[1,2-b]pyridazine-5,6-dicarboxylic acid diethyl ester]
> 500 | CCCc1c(-c2nnc(C)o2)c(C(=O)OCC)c2c(-c3ccccc3)cc(N3CCOCC3)nn12 [Example 78, 6-(5-Methyl-[1,3,4]oxadiazol-2-yl)-2-morpholin-4-yl-4-phenyl-7-propyl-pyrrolo[1,2-b]pyridazine-5-carboxylic acid ethyl ester]
